Results from patent US5763442A, “Anti-parasitic activity” (Universiteit Van Pretoria, priority 1995, dated 1998).

What was measured:
P. falciparum (RB-1) = test: Direct antimalarial activity, flow cytometry, strain RB-1; type: cell-based, Plasmodium falciparum; details: for activity against the malaria microorganism Plasmodium falciparum: summary statement; for inhibition at 0.5 µg/mL: Plasmodium falciparum, 0.5 μg/ml, 48 h, FIG. 2, read-out: inhibition of growth of P. falciparum
Protocol: To investigate the direct antimalarial activity of the riminophenazines B669, B4100, B4103, B4112, B4121, B4158 and B4169 against a laboratory strain of P. falciparum the following experiment was done:
A laboratory strain of P. falciparum (RB-1; obtained from Dr B L Sharp, National Malaria Research Programme, MRC, Durban) was maintained.
For these experiments malaria cultures of haematocrit 5.0% and initial parasitemia 2.0% were used. The malaria infected erythrocytes (ring stage) were incubated in microtitre plates with serial dilutions of B669, B4100, B4103, B4112, B4121, B4158 and B4169 (0.125-2 μg/ml) for 48 hours and processed for analysis on the flow cytometer as described in Example 3.

P. falciparum (FAC 8) = test: Flow cytometry parasitaemia, chloroquine resistant strain FAC 8, chloroquine with/without B4112; type: cell-based, Plasmodium falciparum
Protocol: To test the activity of B4112 to reverse chloroquine resistance in Plasmodium falciparum, the following experiment was done:
A chloroquine resistant strain of P. falciparum (FAC 8) was obtained from Dr P Smith, University of Cape Town (originally from Dr A F Cowman, Royal Melbourne Hospital, Victoria, Australia).
Malaria infected erythrocytes (ring stage) were diluted with human O-positive red blood cells together with RPMI containing 44 mg/l hypoxanthine and 10% human type A serum to a parasitaemia of 2% and a haematocrit of 5%. This suspension was incubated in a gassed desiccator (5% O2, 5% CO2 and 90% N2) with serial dilutions of chloroquine ranging from 61-500 nM in 96-well microtitre culture plates for 48 hours in the presence or absence of a fixed concentration of B4112 (100 ng/ml). Relevant solvent controls were included.
At the end of the incubation period, 100 μl of the medium was removed from each well and replaced with a fixation solution containing 10 mM TRIS, 10 mM Na-Azide and 150 mM Na Cl. The plates were stored overnight at 4° C. and then 25 μl aliquots from each well were stained in test tubes with 0.5 ml thiazole orange at a concentration of 0.25 μg/ml in phosphate-buffered saline (PBS). After an incubation period of 1 hour at room temperature (in the dark), the tubes were placed on ice and the level of parasitaemia determined by flow cytometry using a Coulter Epics Profile II (Coulter Electronics Ltd, Hialeah, PLA, USA).

[1] = tested on: Plasmodium falciparum (Fab-9); test: Microscopic parasitaemia, chloroquine sensitive strain Fab-9 (reversal of chloroquine resistance); type: cell-based; details: 24 h
Protocol: (§1) The activity of riminophenazines to reverse chloroquine resistance in Plasmodium falciparum was tested in the following manner:
(§2) A preliminary series of experiments were carried out using two laboratory strains of P. falciparum (RB-1 and Fab-9). These strains were obtained from the Medical Research Council, Durban, where they were characterised as being either mildly resistant or sensitive to chloroquine. The isolates were maintained in suspension culture in known manner (as described by Freese J A, Markus M B and Golenser J, 1991; Bulletin of the World Health Organization 69: 707-712).
(§3) Infected erythrocytes were diluted with human O-positive red blood cells to a parasitaemia of 0.2-0.9% and suspended to 3% in RPMI containing 44 mg/l hypoxanthine and 10% human type O serum. Aliquots (100 μl) of the suspension were dispensed into the wells of 96-well microtitre plates. To these suspensions 100 μl of the medium were added containing either chloroquine or B669 alone or in combination. The final drug concentrations were 31, 62, 125, 250 500 and 1000 nM for chloroquine and 0.125, 0.25, 0.5 and 1.0 μg/ml for B669. Relevant solvent controls were included. The plates were incubated for 24 hours at 38° C. in a desiccator gassed with 5% O2, 5% CO2 and 90% N2. Thin blood smears were prepared from each well, stained with Giemsa stain and the percentage of red blood cells infected by at least one parasite determined microscopically.

[2] = tested on: Plasmodium falciparum (RB-9); test: 3H-hypoxanthine uptake, chloroquine resistant strain (RB-9 [sic]); type: cell-based; details: read-out: PERCENTAGE INHIBITION (3H-hypoxanthine uptake)
[3] = tested on: Plasmodium falciparum (RB-9); test: as above; type: cell-based; details: Plasmodium falciparum, read-out: PERCENTAGE INHIBITION (3H-hypoxanthine uptake)
Protocol: (§4) The following experiment was done to confirm previous results which were obtained microscopically and details of which are set out in Example 1.
(§5) For this experiment the same two strains of P. falciparum, as used in Example 1 (RB-1 and Fab-9) were again used. Infected erythrocytes were diluted with human O-positive red blood cells to a parasitaemia of 0.2-0.9% and suspended to 3% in RPMI containing 44 mg/l hypxanthine and 10% human type serum. Aliquots (100 μl) of the suspension were dispensed into the wells of 96-well microtitre plates. To these suspensions 100 μl of the medium were added containing either chloroquine or B669 alone or a combination of chloroquine and B669. Relevant solvent controls were included. Negative control wells were also included containing uninfected red blood cells. The plates were incubated at 38° C. in a desiccator gassed with 5% O2, 5% CO2 and 90% N2. After 24 hours 100 μl culture medium of each well was replaced with […] of hypoxathine--free medium containing 10% human serum and 0,5μ Ci^3 H-hypoxanthine and incubated for a further 18 hours. The contents of the wells were then harvested on to glass fibre filters. The filters were washed with distilled water, dried, haemoglobin dissolved in a sodium bicarbonate solution and placed in scintillation vials containing 4 ml scintillation fluid and counted for 5 min in a liquid scintillation counter.
(§6) The percentage inhibition was calculated as follows: [formula] where CPM was the mean of two values of counts per minute for each treatment.

[4] = tested on: Plasmodium falciparum (RB-1); test: Microscopic parasitaemia, chloroquine resistant strain RB-1 (reversal of chloroquine resistance); type: cell-based; details: 24 h
Protocol: as §1, §2, §3

[5] = tested on: Plasmodium falciparum (Fab-9); test: 3H-hypoxanthine uptake, chloroquine sensitive strain Fab-9; type: cell-based; details: Plasmodium falciparum, read-out: PERCENTAGE INHIBITION (3H-hypoxanthine uptake)
Protocol: as §4, §5, §6

malaria parasites = details: background, cited from earlier work

CC1(C)CC(N=c2cc3n(-c4ccc(Cl)c(Cl)c4)c4ccccc4nc-3cc2Nc2ccc(Cl)c(Cl)c2)CC(C)(C)N1 [Compound B4100, N,5-bis(3,4-dichlorophenyl)-3,5-dihydro-3-[(2',2',6',6'-tetramethyl-4-piperidyl)-imino]-2-phenazinamine]
activity against the malaria microorganism Plasmodium falciparum (P. falciparum (RB-1)): good activity

CC1(C)CC(N=c2cc3n(-c4ccc(C(F)(F)F)cc4)c4ccccc4nc-3cc2Nc2ccc(C(F)(F)F)cc2)CC(C)(C)N1 [Compound B4103, N,5-bis(4-trifluoromethylphenyl)-3,5-dihydro-3[(2',2',6',6'-tetramethyl-4-piperidyl)imino]-2-phenazinamine]
inhibition at 0.5 µg/mL (P. falciparum (RB-1)): > 50%

CC1(C)CC(N=c2cc3n(-c4cccc(Cl)c4)c4ccccc4nc-3cc2Nc2cccc(Cl)c2)CC(C)(C)N1 [Compound B4112, N,5-bis(3-chlorophenyl)-3,5-dihydro-3-[(2',2',6',6'-tetramethyl-4-piperidyl)-imino]-2-phenazinamine]
sensitivity of P. falciparum to chloroquine (inhibition) (P. falciparum (FAC 8); B4112 100 ng/ml + chloroquine 125 nM, FIG. 1): 100%
inhibition of parasite growth (P. falciparum (FAC 8); B4112 per se 100 ng/ml, 48 h): 27%
interaction of B4112 and chloroquine (P. falciparum (FAC 8); FAC 8): clearly interacted synergistically
inhibition at 0.5 µg/mL (P. falciparum (RB-1)): > 50%
activity against the malaria microorganism Plasmodium falciparum (P. falciparum (RB-1)): good activity

CC1(C)CC(N=c2cc3n(-c4cc(Cl)cc(Cl)c4)c4ccccc4nc-3cc2Nc2cc(Cl)cc(Cl)c2)CC(C)(C)N1 [Compound B4121, N,5-bis(3,5-dichlorophenyl)-3,5-dihydro-3-[(2',2',6',6'-tetramethyl-4-piperidyl)-imino]-2-phenazinamine]
activity against the malaria microorganism Plasmodium falciparum (P. falciparum (RB-1)): good activity

CC(C)c1ccc(Nc2cc3nc4ccccc4n(-c4ccc(C(C)C)cc4)c-3cc2=NC2CC(C)(C)NC(C)(C)C2)cc1 [Compound B4158, N,5-bis(4-isopropylphenyl)-3,5-dihydro-3-[(2',2',6',6'-tetramethyl-4-piperidyl)-imino]-2-phenazinarnine]
inhibition at 0.5 µg/mL (P. falciparum (RB-1)): > 50%
activity against the malaria microorganism Plasmodium falciparum (P. falciparum (RB-1)): good activity

CCN(CC)CCCC(C)Nc1ccnc2cc(Cl)ccc12 (centres unmarked) [chloroquine, reference compound]
Percentage red blood cells infected with P. falciparum (Fab-9) ([1]; chloroquine 31 nM alone): 4.9%
Percentage red blood cells infected with P. falciparum (Fab-9) ([1]; chloroquine 62 nM alone): 3.9%
Percentage red blood cells infected with P. falciparum (Fab-9) ([1]; chloroquine 125 nM alone, *parasites morphologically abnormal): 2.4%
Percentage red blood cells infected with P. falciparum (Fab-9) ([1]; chloroquine 250 nM alone, *parasites morphologically abnormal): 3.1%
Percentage red blood cells infected with P. falciparum (Fab-9) ([1]; chloroquine 500 nM alone, *parasites morphologically abnormal): 0.1%
Percentage red blood cells infected with P. falciparum (Fab-9) ([1]; chloroquine 1000 nM alone): 0%
inhibition at 0.5 µM [2]: 100%
minimal effective concentration (P. falciparum (FAC 8); Plasmodium falciparum, 48 h, read-out: concentration at which chloroquine per se inhibited the growth of the parasite): ≥ 0.25 µM
inhibition at 0.125 µM (P. falciparum (FAC 8); Plasmodium falciparum, read-out: sensitivity of P. falciparum to chloroquine (inhibition)): 33%
inhibition at 0.031 µM [3]: 0%
inhibition at 0.062 µM [3]: 0%
inhibition at 0.125 µM [3]: 8%
inhibition at 0.25 µM [3]: 33%
inhibition at 1 µM [3]: 100%
Percentage red blood cells infected with P. falciparum (RB-1) ([4]; chloroquine 31 nM alone): 3.5%
Percentage red blood cells infected with P. falciparum (RB-1) ([4]; chloroquine 62 nM alone): 3.3%
Percentage red blood cells infected with P. falciparum (RB-1) ([4]; chloroquine 125 nM alone): 3.3%
Percentage red blood cells infected with P. falciparum (RB-1) ([4]; chloroquine 250 nM alone): 3.1%
Percentage red blood cells infected with P. falciparum (RB-1) ([4]; chloroquine 500 nM alone): 3.0%
Percentage red blood cells infected with P. falciparum (RB-1) ([4]; chloroquine 1000 nM alone): 0.4%
inhibition at 0.031 µM [5]: 52.5%
inhibition at 0.062 µM [5]: 23.5%
inhibition at 0.125 µM [5]: 48.7%
inhibition at 0.25 µM [5]: 66.9%
inhibition at 0.5 µM [5]: 100%
inhibition at 1 µM [5]: 100%

COc1ccc(CCN(C)CCCC(C#N)(c2ccc(OC)c(OC)c2)C(C)C)cc1OC (centres unmarked) [verapamil]
reversal of Pg H1-mediated chloroquine resistance (malaria parasites): can be reversed
side effects of the dose required to reverse resistance (malaria parasites; in vivo): severe side effects in vivo
